{"source": "patent US20240316064A1", "about": "“USE OF ESTRETOL AS A TREATMENT FOR ENDOMETRIOSIS” (UNIVERSIDAD BERNANDO O'HIGGINS, priority 2021, published 2024)", "key": {"[1]": {"system": "11Z epithelial cells", "test": "PARP cleavage rate (apoptosis), Western blot, 11Z cells", "format": "cell-based", "conditions": "24 h incubation, most estetrol and estradiol concentrations", "experimental": "(§1) FIG. 1. […] (A) Western blot analysis against PARP and β-actin after 24 h incubation (B) MTS assay after 24 h incubation (C) Scratch assay. […] The experiments were performed on 2 cell lines, Hs832, endometrial stromal cells and 11Z cells, endometrial epithelium cells."}, "[2]": {"system": "Hs832 stromal cell line", "test": "PARP cleavage rate (apoptosis), Western blot, Hs832 cells", "format": "cell-based", "conditions": "24 h incubation, almost all estetrol concentrations (except 108M)", "experimental": "as §1"}, "[3]": {"system": "11Z epithelial cells", "test": "MTS cell viability assay, 11Z cells", "format": "cell-based", "conditions": "24 h, all estetrol concentrations tested", "experimental": "(§2) FIG. 1. Evaluation of apoptosis, cell viability and migration after treatments with E2 and E4 in endometriotic cells. (A) Western blot analysis against PARP and β-actin after 24 h incubation (B) MTS assay after 24 h incubation (C) Scratch assay.\n(§3) To assess cell viability, the MTS assay was performed after 24 h."}, "[4]": {"system": "Hs832 stromal cell line", "test": "MTS cell viability assay, Hs832 cells", "format": "cell-based", "conditions": "24 h, all estetrol concentrations tested", "experimental": "as §2, §3"}, "[5]": {"system": "11Z cells", "test": "Wound (scratch) migration assay, 11Z cells", "format": "cell-based", "conditions": "estetrol 10^−6, any time point studied", "experimental": "as §2"}, "[6]": {"system": "Hs832 cells", "test": "Wound (scratch) migration assay, Hs832 cells", "format": "cell-based", "conditions": "Hs832, estetrol 10^−6, any time point studied", "experimental": "as §2"}, "[7]": {"system": "ERα", "test": "ERα protein levels by Western blot in endometriotic cells", "format": "cell-based", "conditions": "most of the concentrations used"}, "[8]": {"system": "ER β", "test": "ERβ protein levels by Western blot in endometriotic cells", "format": "cell-based"}, "[9]": {"system": "ERα/ERβ ratio", "test": "ERα/ERβ ratio of protein levels in endometriotic cells", "format": "cell-based", "conditions": "versus control and estradiol conditions"}, "[10]": {"system": "PRB", "test": "PRB protein levels by Western blot in endometriotic cells", "format": "cell-based"}, "[11]": {"system": "genes associated with the progesterone signaling pathway", "test": "PCR array for progesterone-regulated genes in Hs832 cells", "format": "cell-based", "conditions": "24 h E4 (10^−6M) then 6h pulse with P4 (10^−7M), versus P4 without pre-treatment; for expression of PTGER2, NF1, MUC1, TWIST1 and SNAI1: change to a lesser extent", "experimental": "FIG. 4. PCR Array Analysis for Progesterone-Regulated Genes in Endometrial Cells, Hs832 Cells. The expression of genes regulated by progesterone (P4) is compared, when incubating with P4 without previous treatment or with a 24 hour treatment with Estetrol.\nProcedure: Hs832 endometriosis cells were incubated for 24 h with E4 (10^−6M) or vehicle (ethanol) as a control, then both cells received a 6h pulse with P4 (10^−7M) to then extract their messenger RNA in order to evaluate the levels. expression of 24 genes associated with the progesterone signaling pathway."}, "[12]": {"system": "PRA", "test": "PRA protein levels by Western blot in endometriotic cells"}}, "data": [{"compound": "C[C@]12CC[C@@H]3c4ccc(O)cc4CC[C@H]3[C@@H]1[C@@H](O)[C@@H](O)[C@@H]2O", "note": "[estetrol]", "values": [{"measurement": "PARP cleavage rate (apoptosis)", "setting": "[1]", "result": "apoptosis was reduced"}, {"measurement": "PARP cleavage rate (apoptosis)", "setting": "[2]", "result": "significant decrease"}, {"measurement": "changes in cell viability compared to controls (MTS)", "setting": "[3]", "result": "None of the estetrol concentrations tested showed changes"}, {"measurement": "changes in cell viability compared to controls (MTS)", "setting": "[4]", "result": "None of the estetrol concentrations tested showed changes"}, {"measurement": "migration (wound assay)", "setting": "[5]", "result": "showed no difference from the control"}, {"measurement": "migration (wound assay)", "setting": "[6]", "result": "showed no difference from the control"}, {"measurement": "ERα levels over β-actin", "setting": "[7]; 11Z, estetrol", "result": "robust increase"}, {"measurement": "ERα levels over β-actin", "setting": "[7]; Hs832, estetrol", "result": "robust increase"}, {"measurement": "ER protein levels (ER β levels over β-actin, FIG. 2B)", "setting": "[8]; 11Z, estetrol, most concentrations used", "result": "reduced levels"}, {"measurement": "ER protein levels (ER β levels over β-actin, FIG. 2B)", "setting": "[8]; Hs832, estetrol, all conditions", "result": "reduced levels"}, {"measurement": "ERα/ERβ ratio", "setting": "[9]; 11Z cells, estetrol 10^−7/10^−6/10^−5M", "result": "significantly increases"}, {"measurement": "ERα/ERβ ratio", "setting": "[9]; Hs832 cells, estetrol 10^−9/10^−7M", "result": "significantly increases"}, {"measurement": "PRB protein levels over β-actin", "setting": "[10]; 11Z cells, estetrol, all concentrations used", "result": "more consistent increase"}, {"measurement": "PRB protein levels over β-actin", "setting": "[10]; HsS32, estetrol 10^−6/10^−5M", "result": "more consistent increase"}, {"measurement": "decrease of expression of FGF12, GCFC2, PWP1, ITGA6, ZEB1, POSTN and FKBP25", "setting": "[11]", "result": "to a lesser extent"}, {"measurement": "expression of NFIX, GNRFI1, ESR1, MEF2D and I HH", "setting": "[11]", "result": "stimulating the expression"}, {"measurement": "expression of PRL, SNAI2, RAD54L, HES1, ABCG2, TCF4", "setting": "[11]", "result": "strongly decreasing"}, {"measurement": "expression of PTGER2, NF1, MUC1, TWIST1 and SNAI1", "setting": "[11]", "result": "increase"}, {"measurement": "expression of PTGER2, NF1, MUC1, TWIST1 and SNAI1", "setting": "[11]; listed as E4", "result": "increases"}, {"measurement": "expression of PRL, SNAI2, RAD54L, HES1, ABCG2, TCF4", "setting": "[11]; listed as E4", "result": "strongly decreases"}, {"measurement": "PRA protein levels over β-actin", "setting": "[12]; 11Z, estetrol 10^−9/10^−8M", "result": "increase"}, {"measurement": "PRA protein levels over β-actin", "setting": "[12]; Hs832, estetrol 10^−5M", "result": "increase"}, {"measurement": "PRA protein levels over β-actin", "setting": "[12]; HsS32, estetrol 10^−9/10^−7M", "result": "decreased"}]}]}
